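Results reflect a 48-hour exposure of cells in 96-well plates to compound at five concentrations. The concentration for 50% growth inhibition is given as GI50. At the TGI there is no net growth.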
Key:
Experiment in all cases: NCI-60 cell line screen, 48 h
SW-620 colon = tested on: SW-620 colon
ACHN renal = tested on: ACHN renal
RXF-631 renal = tested on: RXF-631 renal
RPMI-8226 leukemia = tested on: RPMI-8226 leukemia
MOLT-4 leukemia = tested on: MOLT-4 leukemia
COLO 205 colon = tested on: COLO 205 colon
SK-MEL-28 melanoma = tested on: SK-MEL-28 melanoma
HOP-62 NSCLC = tested on: HOP-62 NSCLC
MCF7 breast = tested on: MCF7 breast
MDA-MB-435 = tested on: MDA-MB-435
BT-549 breast = tested on: BT-549 breast
MDA-N = tested on: MDA-N
DU-145 prostate = tested on: DU-145 prostate
PC-3 prostate = tested on: PC-3 prostate
HS 578T breast = tested on: HS 578T breast
MDA-MB-231 breast = tested on: MDA-MB-231 breast
SR leukemia = tested on: SR leukemia
T-47D breast = tested on: T-47D breast
LXFL 529 NSCLC = tested on: LXFL 529 NSCLC

C=C1CC[C@@H](Br)C(C)(C)[C@]12CCC(C)(O)C(Cl)C2 (some centres not stated)
TGI (SW-620 colon): 27.2 µM | TGI (ACHN renal): 36.4 µM | TGI (RXF-631 renal): 41.9 µM | TGI (RPMI-8226 leukemia): 40.2 µM | TGI (MOLT-4 leukemia): 38.3 µM | TGI (COLO 205 colon): 29.6 µM | TGI (SK-MEL-28 melanoma): 40.2 µM | TGI (HOP-62 NSCLC): 49.7 µM

O=C(CCl)NC(Cc1ccc(F)cc1)C(=O)O (configuration not stated)
TGI (SW-620 colon): > 100 µM | TGI (RPMI-8226 leukemia): > 100 µM | TGI (MCF7 breast): > 100 µM | TGI (MOLT-4 leukemia): > 100 µM | TGI (COLO 205 colon): > 100 µM | TGI (SK-MEL-28 melanoma): > 100 µM | TGI (HOP-62 NSCLC): > 100 µM

CC(=O)O[C@H]1CC[C@@]2(C)C(=CC[C@@H]3[C@@H]2CC[C@]2(C)Nc4c(cnn4S(C)(=O)=O)C[C@@H]32)C1
TGI (MDA-MB-435): > 100 µM | TGI (BT-549 breast): 72.5 µM | TGI (RPMI-8226 leukemia): > 100 µM | TGI (MDA-N): > 100 µM | TGI (MCF7 breast): > 100 µM | TGI (DU-145 prostate): > 100 µM | TGI (MOLT-4 leukemia): 47.4 µM | TGI (COLO 205 colon): > 100 µM | TGI (PC-3 prostate): > 100 µM | TGI (SK-MEL-28 melanoma): > 100 µM | TGI (HS 578T breast): > 100 µM | TGI (HOP-62 NSCLC): > 100 µM | TGI (MDA-MB-231 breast): > 100 µM | TGI (SR leukemia): > 100 µM | TGI (T-47D breast): > 100 µM

CC1CCC(O)(C(C)(C(=O)O)c2ccccc2)CC1 (configuration not stated)
TGI (SW-620 colon): > 100 µM | TGI (ACHN renal): > 100 µM | TGI (MDA-MB-435): > 100 µM | TGI (BT-549 breast): > 100 µM | TGI (MDA-N): > 100 µM | TGI (DU-145 prostate): > 100 µM | TGI (MOLT-4 leukemia): > 100 µM | TGI (PC-3 prostate): > 100 µM | TGI (SK-MEL-28 melanoma): > 100 µM | TGI (HS 578T breast): > 100 µM | TGI (HOP-62 NSCLC): > 100 µM | TGI (MDA-MB-231 breast): > 100 µM | TGI (T-47D breast): > 100 µM

CCOC(=O)[C@H]1Nc2c(cccc2[N+](=O)[O-])[C@H]2OCC[C@@H]12
TGI (SW-620 colon): > 100 µM | TGI (ACHN renal): > 100 µM | TGI (RXF-631 renal): > 100 µM | TGI (RPMI-8226 leukemia): > 100 µM | TGI (LXFL 529 NSCLC): > 100 µM | TGI (MOLT-4 leukemia): > 100 µM | TGI (COLO 205 colon): > 100 µM | TGI (SK-MEL-28 melanoma): > 100 µM | TGI (HOP-62 NSCLC): > 100 µM | TGI (SR leukemia): > 100 µM

C/C(=N\Oc1cc(Cl)ncn1)c1ccccn1
TGI (SW-620 colon): > 100 µM | TGI (ACHN renal): > 100 µM | TGI (MDA-MB-435): > 100 µM | TGI (BT-549 breast): > 100 µM | TGI (RPMI-8226 leukemia): > 100 µM | TGI (MDA-N): > 100 µM | TGI (MCF7 breast): > 100 µM | TGI (DU-145 prostate): > 100 µM | TGI (MOLT-4 leukemia): > 100 µM | TGI (COLO 205 colon): > 100 µM | TGI (PC-3 prostate): > 100 µM | TGI (SK-MEL-28 melanoma): > 100 µM | TGI (HS 578T breast): > 100 µM | TGI (HOP-62 NSCLC): > 100 µM | TGI (MDA-MB-231 breast): 87.6 µM | TGI (SR leukemia): > 100 µM | TGI (T-47D breast): > 100 µM

CCOC(=O)Nc1cc2c(c(N)n1)N=C(c1ccccc1)[C@H](C)N2
TGI (SW-620 colon): > 100 µM | TGI (ACHN renal): 55 µM | TGI (MDA-MB-435): < 0.0001 µM | TGI (RPMI-8226 leukemia): 22.4 µM | TGI (MDA-N): 0.000122 µM | TGI (LXFL 529 NSCLC): > 100 µM | TGI (MOLT-4 leukemia): 14.5 µM | TGI (COLO 205 colon): < 0.0001 µM | GI50 (HOP-62 NSCLC): < 0.0001 µM | TGI (HOP-62 NSCLC): 22.9 µM

Cc1ccc([N+](=O)[O-])cc1NC(=O)C(=O)C(C(=O)c1ccccc1F)C1OC(=O)c2ccccc21 (configuration not stated)
TGI (SW-620 colon): > 100 µM | TGI (ACHN renal): > 100 µM | TGI (RXF-631 renal): > 100 µM | TGI (RPMI-8226 leukemia): > 100 µM | TGI (LXFL 529 NSCLC): > 100 µM | TGI (MOLT-4 leukemia): > 100 µM | TGI (COLO 205 colon): > 100 µM | TGI (SK-MEL-28 melanoma): > 100 µM | TGI (HOP-62 NSCLC): > 100 µM | TGI (SR leukemia): > 100 µM

O=C(O)CCSCc1ccc(I)cc1
TGI (SW-620 colon): > 100 µM | TGI (ACHN renal): > 100 µM | TGI (MDA-MB-435): > 100 µM | TGI (BT-549 breast): > 100 µM | TGI (RPMI-8226 leukemia): > 100 µM | TGI (MDA-N): > 100 µM | TGI (MCF7 breast): > 100 µM | TGI (DU-145 prostate): > 100 µM | TGI (MOLT-4 leukemia): > 100 µM | TGI (COLO 205 colon): > 100 µM | TGI (PC-3 prostate): > 100 µM | TGI (SK-MEL-28 melanoma): > 100 µM | TGI (HS 578T breast): > 100 µM | TGI (HOP-62 NSCLC): > 100 µM | TGI (MDA-MB-231 breast): > 100 µM | TGI (T-47D breast): > 100 µM

Oc1c2c(c3c4c1N=CC=4CCN=3)-c1c(Br)cc(Br)cc1CCN2
TGI (SW-620 colon): 6.03 µM | TGI (RPMI-8226 leukemia): 17.5 µM | TGI (MCF7 breast): 4.16 µM | TGI (COLO 205 colon): 2.62 µM | TGI (SK-MEL-28 melanoma): 21.8 µM | TGI (HOP-62 NSCLC): 29.8 µM

NC(=S)Nc1cc(Cl)ccc1Cl
TGI (SW-620 colon): > 100 µM | TGI (ACHN renal): > 100 µM | TGI (RXF-631 renal): > 100 µM | TGI (RPMI-8226 leukemia): > 100 µM | TGI (LXFL 529 NSCLC): > 100 µM | TGI (MOLT-4 leukemia): > 100 µM | TGI (COLO 205 colon): > 100 µM | TGI (SK-MEL-28 melanoma): > 100 µM | TGI (HOP-62 NSCLC): > 100 µM | TGI (SR leukemia): > 100 µM

— PubChem BioAssay (NCI)
